The values that follow are results of earlier work, collected in patent US20090252807A1, “Nanoparticulate and Controlled Release Compositions Comprising Prostaglandin Derivatives” (ELAN PHARMA INTERNATIONAL LIMITED, priority 2005, published 2009).

Like-named read-outs stand apart in the source and are kept apart here.

One data set has as its system platelet adhesiveness. Conditions: in vitro.
The subject of a further data set is coronary blood flow. Conditions: intra-coronary injection 100 ng/kg or intravenous injection 3 μg/kg, anesthetized dogs.
The subject of another data set is blood pressure. Conditions: 100 and 300 μg/kg orally in rats.

With “(E)-7-{(1R,2R,3R)-3-hydroxy-2-[(3S,5S)-E-3hydroxy-5-methyl-1-nonenyl]-5-oxocyclopentyl}-2-heptonoic acid α-cyclodextrin inclusion compound [Limaprost]”, the solubility in diethylether result is listed as “practically insoluble”, the solubility in ethanol result is recorded as “very slightly soluble”, the “solubility in ethyl acetate” value was “practically insoluble” and the solubility in water entry was “freely soluble”. For the same substance, where the note is “listed as limaprost”, the solubility in water entry is “practically insoluble”. Moreover, the “potency relative to PGE1 as an inhibitor of platelet adhesiveness” value in the data set on platelet adhesiveness was 10-1,000 times. Moreover, the “increase of coronary blood flow” value in the data set on coronary blood flow is reported as 60-80%. The hypotensive effects result in the data set on blood pressure was “Significant hypotensive effects”.
